Reference: US20170081383A1, “MELANOCORTIN ANALOGS HAVING ENHANCED ACTIVITY AND TRANSPORT” (Tensive Controls Inc., priority 2012, published 2017)
Entries after “also recorded” stand apart in the source; their conditions may differ. Positions of bridges follow the written chain, without caps; N, C: chain ends. Non-standard residues stand in square brackets, D forms with d. Residues, ends and D or L forms follow the SMILES beside them. No end group written: not given here. β2Val = β2-Val (beta2-Val), beta-amino acid; d2Nal = N[C@H](Cc1ccc2ccccc2c1)C(=O)O; β3hP = O=C(O)C[C@@H]1CCCN1; Nle = CCCC[C@H](N)C(=O)O

Key:
[1] = tested on: urethane-anesthetized rats; assay: Cardiovascular activity of melanocortin peptides (MAP, heart rate, ECG); details: 200 nmol, n = 5
Protocol: These studies were performed in urethane-anesthetized rats, since anesthesia is required for six-lead ECG monitoring. […] Initial selection of doses was guided by FDA exploratory IND studies with a recommendation for at least a 100-fold excess of the human dose.

[2] = Sutton et al., Peptides 2008; cited from earlier work
[3] = tested on: LPS-induced cachexia in rats; assay: Lipopolysaccharide (LPS)-induced cachexia assay; assay type: in vivo, rat; details: for food intake, 24 hours after LPS challenge / body weight (percent of pre-LPS baseline), 24 hours after LPS challenge: 0.2 mg/kg intraperitoneally; for food intake, 24 hours after LPS challenge: FIG. 8A; for body weight (percent of pre-LPS baseline), 24 hours after LPS challenge: FIG. 8B; for anti-cachectic activity after ICV (IVt) administration (in words): intracerebroventricular administration; for peripheral (IP) anti-cachexia activity, feeding (in words): peripheral / intraperitoneal administration after LPS
Protocol: The LPS model uses rats were maintained on a 12 h light/dark schedule with ad libitum access to food and water. Animals were handled daily for a minimum of three consecutive days to decrease non-specific handling stress. On the day of the experiment, individually housed animals received intraperitoneal injections of LPS dissolved in 0.5% low-endotoxin BSA, 0.9% saline or 0.5% BSA in 0.9% saline alone, and were returned to their home cage. The drug or control was administered (ICV, IP, or PO, depending on the type of study) 1-hour after LPS injection.
In the experiments described herein, a series of melanocortin receptor antagonist peptides were examined in a bacterial endotoxin inducing cachexia assay. For this assay, a rat is challenged with a single peripheral injection of lipopolysaccharide (LPS). LPS is a heat-stable lipo-polysaccharide, the major component of the outer membrane (capsule) of gram negative bacteria. In non-capsulated strains, it appears as a cell surface […]. LPS produces a strong immune response, including secretion of the proinflammatory cytokines Tumor Necrosis Factor α (TNFα) and interleukin-1 (IL-1). Proinflammatory cytokines are known factors that induce cachexia.
Rats are maintained on a 12-hour light/dark cycle. Animals are handled daily for a minimum of 5 consecutive days to acclimate them to the handling required for the experiment. […] On the day of the experiment, individually housed animals receive intraperitoneal (IP) injections of LPS dissolved in 0.5% low-endotoxin BSA, 0.9% saline or 0.5% BSA in 0.9% saline alone, and returned in their home cage. Melanocortin receptor antagonist peptides were administered (IP or by gavage, depending on the type of study) one hour after the LPS injection. The extent of cachexia is measured by the reduction in food intake, measured every two hours. The cachexia typically lasts only a single day. However, rats lose up to 5% of their body weight during a 12-hour light cycle, making up this loss plus food needed for normal growth during the 12-hour dark cycle. Thus, failure to eat appropriately during a single dark cycle is determinable from the animal's weight and any changes thereof.
A series of melanocortin receptor antagonist peptides were examined in a bacterial toxin inducing cachexia assay. In this assay, a rat was challenged with a single peripheral injection of lipopolysaccharide (LPS), a bacterial toxin that rapidly induces acute cachexia. The extent of cachexia was measured as a reduction in food intake, measured every two hours. The cachexia typically lasts only a single day.

Lewis sarcoma rat = assay: Reversal of cachexia-induced lethargy; assay type: in vivo; details: once-daily peripheral dosing for 48 hours (2 IP doses), irrespective of tumor load
Source text: In animals and humans, cachexia produces “lethargy,” i.e., the aversion to activity. Grossberg et al., J. Neurosci. 31(31): 11376-11386. […] This therapeutic effect is dependent on a stabilized melanocortin antagonist C-terminal extension. Video recordings characterized control animal behavior as neo-exploratory movement about the cage, i.e., repeated “sniffing” the air to presumably sample odors (e.g., neighboring animals), grooming, and intermittent bouts of eating and drinking. Caldecott-Hazard et al., J. Neurosci. 8(6): 1951-1961 (1988).
The animal typically remains in one position for an extended period of time (>1 minute). Occasionally it will change position, assuming the new position for an extended period. The rats show no grooming behavior, evident in the appearance of their coat and eyes.

[4] = TCMCB07 in rat plasma and cerebrospinal fluid after IV administration (HPLC fluorescence, mass spectrometry); assay type: in vivo
Protocol: Urethane-Anesthetized Rats Had Polyethylene (PE)-Tubing Cannulas Placed in their Femoral artery and vein. Each rat was then placed in a small animal stereotaxic apparatus, their head fixed in the lateral plane with ear bars, and their head placed in a 45-50° downward angle by placing their nose below an adjustable tooth bar. This position placed the animal's cistern magna at the highest vertical position of its body. The dural covering of the dorsal cistern magna was exposed.
A stainless steel cannula, with one end attached to PE-tubing, was placed in a stereotaxic tower cannula holder (open end down). The free end of the PE-tubing was attached to a 100 μL gas-tight Hamilton syringe with a 28-gauge needle. The cannula was adjusted to a position that approximated the middle of the exposed cistern magna, and the cannula lowered until it touched the dura mater. […] The dura has a degree of flexibility such that the cannula can depress it before it pierces it. After it was pierced, the dural rises to its original position, placing the cannula tip within the cistern magna space. The position of the cannula tip was again noted on the vertical axis of the tower. Typically, the cannula tip was 1.6-1.8 mm below the original dura-touch position. The cannula tip was then adjusted, if needed, to 1.8 mm below the dura, and the cannula sealed to the dura using skin glue. Samples of cisternal cerebrospinal (CSF) fluid were removed through cannula and PE-tubing by slowly drawing on the Hamilton syringe.
For the experimental procedure, baseline samples of blood and CSF were taken (“0” time points), followed by the IV administration of 750 nmol/kg TCMCB07. Samples of CSF (50 μL) and blood (1 mL) were collected at the following time points: 0, 5, 15, 30, and 90 minutes. […] Both CSF and plasma were stored at −80° C. until analyzed by (HPLC) with spectrofluoremetric monitoring at 230 nm excitation and […] emission (the fluorescence maximum for the Nal residue). […]

cachexia models = details: Marks et al., Cancer Res. 2001; cited from earlier work

## Ac-Nle-c[Asp-Pro-D-Nal(2′)-Arg-Trp-Lys]-Pro-Val-NH2 (Ac-[Nle]DP[d2Nal]RWKPV-NH2; lactam 2-7) [PG932]
[1]
  Duration: 4 ± 3 min
  Peak Heart Rate Response (BPM): 13 ± 9 BPM
  Peak MAP Response (Δ mm Hg): 5 ± 3 mm Hg
[2]
  peripheral activity: active peripherally

## CCCC[C@H](NC(C)=O)C(=O)N[C@H]1CC(=O)NCCCC[C@@H](C(=O)N[C@@H](C(=O)N2CCC[C@@H]2C(N)=O)C(C)C)NC(=O)[C@H](Cc2c[nH]c3ccccc23)NC(=O)[C@H](CCCNC(=N)N)NC(=O)[C@@H](Cc2ccc3ccccc3c2)NC(=O)[C@@H]2CCCN2C1=O [TCMCB07, Ac-Nle-c[Asp-Pro-D-Nal(2′)-Arg-Trp-Lys]-D-Val-D-Pro-NH2] (Ac-[Nle]DP[d2Nal]RWK[dV][dP]-NH2; lactam 2-7)
[3]
  food intake, 24 hours after LPS challenge: stimulated appetites
  body weight (percent of pre-LPS baseline), 24 hours after LPS challenge: significantly gained weight
  peripheral (IP) anti-cachexia activity, feeding (in words): equivalent stimulation of feeding; also recorded: significant increase in feeding
[3]; IP
  peripheral (IP) LPS anti-cachectic activity relative to TCMCB02: 10 fold
[3]; gavage (intra-gastric) administration, LPS cachexia
  oral activity / gastrointestinal transport (in words): significant enhancement of food intake
[3]; LPS model
  anti-cachectic activity after ICV (IVt) administration (in words): maintained ICV activity
[3]; peripheral administration
  activity following peripheral administration relative to TCMCB02: about 10 times
Lewis sarcoma rat
  behavior of cachectic (lethargic) rats: restored “normal” behavior to rats

## Ac-Nle-c[Asp-Pro-D-Nal(2′)-Arg-Trp-Lys]-β^3-Pro-β^2-Val-NH2 (Ac-[Nle]DP[d2Nal]RWK[β3hP][β2Val]-NH2; lactam 2-7) [TCMCB05]
[3]
  food intake, 24 hours after LPS challenge: stimulated appetites
  body weight (percent of pre-LPS baseline), 24 hours after LPS challenge: significantly gained weight
  peripheral (IP) anti-cachexia activity, feeding (in words): had IP anti-cachexia activity; also recorded: had peripheral anti-cachexia activity; also recorded: Only TCMCB07 produced a significant increase in feeding
[3]; ICV administration, LPS-induced cachexia
  molar activity relative to TCMCB02: 10 fold
[3]; LPS model
  anti-cachectic activity after ICV (IVt) administration (in words): molar activity equivalent to TCMCB02
Lewis sarcoma rat
  behavior of cachectic (lethargic) rats: restored “normal” behavior to rats

## CCCC[C@H](NC(C)=O)C(=O)N[C@H]1CC(=O)NCCCC[C@@H](C(=O)N[C@@H](C(=O)N2CCC[C@@H]2C(N)=O)C(C)C)NC(=O)[C@H](Cc2c[nH]c3ccccc23)NC(=O)[C@H](CCCN=C(N)N)NC(=O)[C@@H](Cc2ccc3ccccc3c2)NC(=O)[C@@H]2CCCN2C1=O [TCMCB07, Ac-Nle-c[Asp-Pro-D-Nal(2′)-Arg-Trp-Lys]-D-Val-D-Pro-NH2] (Ac-[Nle]DP[d2Nal]RWK[dV][dP]-NH2; lactam 2-7)
[3]; LPS model
  blood-brain barrier transport (concluded from peripheral vs ICV activity): both gastrointestinal and blood-brain barrier transport
[4]; 5 and 30 minutes post IV 750 nmol/kg, peak height
  proposed metabolite peak (retention time 12.9 minutes) in CSF: peak height increases over time; also recorded: increased cerebrospinal fluid concentration
[4]; IV 750 nmol/kg
  transport through the blood-brain-barrier (physical evidence): direct physical evidence of TCMCB07 transport through the blood-brain-barrier
[4]; after IV 750 nmol/kg, no obvious Nal-fluorescence peak
  presence in CSF by mass spectrometry of HPLC effluent: confirmed the presence of TCMCB07 in CSF

## AGRP: endogenous melanocortin system inhibitor (agouti-related protein); naturally occurring melanocortin antagonist protein (SSRRCVRLHESCLGQQVPCCDPCATCYCRFFNAFCYCRKLGTAMNPCSRT; ends and bridges not checked; cysteine pairing not given here; UniProt O00253 83-132, looked up)
Cachexia models
  reversal of cachexia-anorexia syndrome: 100%
